According to patent US12403143B2, “Pharmaceutical composition for treating functional psychiatric disorders” (OBSCHESTVO S OGRANICHENNOI OTVETSTVENNOSTYU “VALENTEK”, priority 2016, dated 2025):
Like-named read-outs stand apart in the source and are kept apart here.

Experiments:
[1] = Leucht et al., Lancet 2013; cited from earlier work
D4.4 receptor = target: T1, D4.4 receptor (Homo sapiens, UniProt P21917); experiment: D4 receptor functional antagonism, cAMP level by fluorescence; format: cell-based; details: ratio of binding constants
T1 sequence (P21917 1-419): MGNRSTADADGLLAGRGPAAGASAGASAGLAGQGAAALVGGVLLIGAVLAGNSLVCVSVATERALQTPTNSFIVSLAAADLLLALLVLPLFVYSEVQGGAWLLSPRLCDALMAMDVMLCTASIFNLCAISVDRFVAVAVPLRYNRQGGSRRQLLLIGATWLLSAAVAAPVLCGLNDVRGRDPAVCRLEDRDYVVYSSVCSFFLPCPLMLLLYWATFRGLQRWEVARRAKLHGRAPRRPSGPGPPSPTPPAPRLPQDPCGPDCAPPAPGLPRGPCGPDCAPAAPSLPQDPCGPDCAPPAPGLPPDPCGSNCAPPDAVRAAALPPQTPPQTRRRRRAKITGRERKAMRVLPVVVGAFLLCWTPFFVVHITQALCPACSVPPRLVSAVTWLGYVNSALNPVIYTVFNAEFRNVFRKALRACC
Experimental: (§1) Response for cells expressing D2 receptors was determined as the change in cell conductance caused by the redistribution of intracellular calcium. For D4 receptor, the response criterion was the level of the secondary messenger, cAMP, determined by fluorescence after lysis of the cell expressing the receptor.

rats = experiment: Sub-chronic toxicity, blood composition / neutrophil kinetics; format: in vivo; details: intragastric 5 mg/kg daily for 28 days
Experimental: The neutrophil kinetics were studied within comparative tests of sub-chronic toxicity. Studies were conducted in rats upon intragastric administration of substances at a dose of 5 mg/kg. The test substances were administered daily for 28 days. Each experimental group composed of 10 animals of each sex.

mice = experiment: Amphetamine-induced locomotion inhibition (ALI), model of bipolar disorder; format: in vivo
From the text: The ability of drugs to inhibit amphetamine-induced locomotor activity (amphetamine-induced locomotion inhibition, ALI) is a consequence of their blocking effect on dopamine receptors. Amphetamine causes a disruption of the reuptake of monoamine neurotransmitters and their accumulation in the intersynaptic space; blockade of dopamine receptors by antagonists neutralizes the excessive stimulation of dopamine signaling pathways. ALI is the basic test based on the dopamine model of bipolar disorder, and allows to evaluate the ability of drug candidates to bind to brain dopamine receptors in vivo.
[…]. After that, 3 mg/kg of d-amphetamine were administered intraperitoneally to the animals and the record of the activity was resumed. The distance (in cm) travelled by the animal in the first 60 minutes after administration of antipsychotic drugs and the distance travelled in the next hour after d-amphetamine administration were estimated.

[2] = Metabolism and tissue distribution of fluoroclozapine after single oral administration; details: rats, single oral 10 mg/kg fluoroclozapine
M1 receptor = target: T2, M1 receptor (Homo sapiens, UniProt P11229); experiment: M1 muscarinic receptor activation, Fluo-4 NW Ca2+ fluorescence; format: cell-based; details: FIG. 6
T2 sequence (P11229 1-460): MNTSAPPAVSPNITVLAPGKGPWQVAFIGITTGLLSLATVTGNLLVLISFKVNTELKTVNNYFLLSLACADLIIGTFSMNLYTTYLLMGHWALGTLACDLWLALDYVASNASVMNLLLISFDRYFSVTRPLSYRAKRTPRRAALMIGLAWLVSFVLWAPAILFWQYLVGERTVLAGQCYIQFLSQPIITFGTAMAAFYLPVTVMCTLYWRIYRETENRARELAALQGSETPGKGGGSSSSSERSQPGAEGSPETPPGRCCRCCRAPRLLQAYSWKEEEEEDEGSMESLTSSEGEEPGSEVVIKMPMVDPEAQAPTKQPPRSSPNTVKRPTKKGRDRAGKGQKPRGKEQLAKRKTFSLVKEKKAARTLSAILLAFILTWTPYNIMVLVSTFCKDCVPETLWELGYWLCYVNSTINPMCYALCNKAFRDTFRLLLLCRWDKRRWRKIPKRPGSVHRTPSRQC
Experimental: The activity was determined according to the fluorescence of Fluo-4 NW indicator introduced into cells, induced by a change in Ca^2+ ion concentration in the cytosol.

H1 receptor = H1 receptor (Homo sapiens, UniProt P35367); experiment: H1 receptor functional activity, Fluo-4 NW Ca2+ fluorescence
Chain of H1 receptor (P35367 whole entry): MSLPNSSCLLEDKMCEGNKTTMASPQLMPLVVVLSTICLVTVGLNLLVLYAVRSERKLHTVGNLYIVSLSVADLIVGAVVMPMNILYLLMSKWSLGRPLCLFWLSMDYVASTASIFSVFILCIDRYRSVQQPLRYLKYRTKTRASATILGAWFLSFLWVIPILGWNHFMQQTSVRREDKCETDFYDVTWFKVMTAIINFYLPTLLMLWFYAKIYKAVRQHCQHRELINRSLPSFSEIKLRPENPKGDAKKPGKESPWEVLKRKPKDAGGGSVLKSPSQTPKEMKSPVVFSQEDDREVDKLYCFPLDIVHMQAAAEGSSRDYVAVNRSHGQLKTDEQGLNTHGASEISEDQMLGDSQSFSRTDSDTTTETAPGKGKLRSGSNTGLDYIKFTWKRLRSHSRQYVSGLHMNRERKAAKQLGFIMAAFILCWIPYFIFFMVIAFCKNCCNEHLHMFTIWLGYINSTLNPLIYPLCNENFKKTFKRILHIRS
Experimental: The functional activity against H1 receptor was determined according to the fluorescence of Fluo-4 NW indicator introduced into cells, induced by a change in Ca^2+ ion concentration in the cytosol.

miniature pigs = experiment: Maximum tolerated dose by dose escalation; format: in vivo; details: extrapolated from miniature pigs
Experimental: (§2) To assess the safety of halogen derivatives of clozapine, the maximum tolerated dose (MTD) for miniature pigs was determined.
(§3) Initially, the pharmaceutical composition was administered at a dose of 0.53 mg/kg for 7 days. Then, on the 8th day, the administered dose of the pharmaceutical composition was increased to 1 mg/kg. After that, the dose was increased by 0.5 mg/kg every 1st, 3rd and 5th days of the seven-day cycle until an observable intoxication was noted.

[3] = Maximum tolerated dose by dose escalation; format: in vivo, miniature pigs; details: pig, in vivo, miniature pigs, dose escalation
Experimental: as §2, §3

muscarinic M4 receptor = target: T3, muscarinic M4 receptor (Homo sapiens, UniProt P08173); experiment: M4 muscarinic receptor functional experiments, cAMP level; format: cell-based
T3 sequence (P08173 1-479): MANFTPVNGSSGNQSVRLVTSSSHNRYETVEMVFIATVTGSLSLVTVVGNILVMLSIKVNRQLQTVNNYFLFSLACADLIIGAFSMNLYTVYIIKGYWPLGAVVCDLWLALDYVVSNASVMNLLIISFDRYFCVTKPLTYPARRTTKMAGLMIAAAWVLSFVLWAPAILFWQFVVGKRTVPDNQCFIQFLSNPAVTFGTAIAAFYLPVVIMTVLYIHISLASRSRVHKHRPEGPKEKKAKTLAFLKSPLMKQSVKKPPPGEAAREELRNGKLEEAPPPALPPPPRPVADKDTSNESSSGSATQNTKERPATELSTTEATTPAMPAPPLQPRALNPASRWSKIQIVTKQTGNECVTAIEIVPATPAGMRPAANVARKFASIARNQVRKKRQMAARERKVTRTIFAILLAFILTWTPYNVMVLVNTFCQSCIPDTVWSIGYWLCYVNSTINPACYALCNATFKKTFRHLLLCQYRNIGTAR
Experimental: The side effect of M4 muscarinic receptor agonists is intense salivation (sialorrhea). […] Curves of response dependence on the concentration of the compound for the receptor were built; the response criterion was the level of the secondary messenger—cAMP, which is determined by fluorescence after cell lysis expressing the receptor.

5HT2A receptor = 5HT2A receptor (Homo sapiens, UniProt P28223); experiment: 5HT2A receptor functional antagonism, cAMP level by fluorescence; format: cell-based
Chain of 5HT2A receptor (P28223 whole entry): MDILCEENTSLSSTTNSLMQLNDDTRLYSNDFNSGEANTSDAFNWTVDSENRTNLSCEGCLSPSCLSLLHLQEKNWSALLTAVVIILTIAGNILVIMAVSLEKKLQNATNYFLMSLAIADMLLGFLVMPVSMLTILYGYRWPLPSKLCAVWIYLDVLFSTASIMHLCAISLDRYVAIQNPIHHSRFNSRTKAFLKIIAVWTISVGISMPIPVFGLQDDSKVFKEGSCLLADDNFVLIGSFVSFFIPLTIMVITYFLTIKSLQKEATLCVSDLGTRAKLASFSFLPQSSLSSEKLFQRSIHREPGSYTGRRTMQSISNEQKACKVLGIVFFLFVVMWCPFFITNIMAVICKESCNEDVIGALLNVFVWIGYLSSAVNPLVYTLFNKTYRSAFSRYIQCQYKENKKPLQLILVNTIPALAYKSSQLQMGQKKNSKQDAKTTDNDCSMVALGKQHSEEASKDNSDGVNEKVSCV
Experimental: as §1, with “determined by” for “determined as”, “For 5HT2A” for “For D4”

CF-1 mice = experiment: Sedation: total distance travelled after oral administration; format: in vivo
From the text: The results of the in vitro experiments given in Example 4 have been confirmed by the studies of sedation.

[4] = female, read-out: MTD (females)

| SMILES | increase of the risk of sedation [1] | Stab neutrophils (rats) | effect on M1 receptors (M1 receptor) | Therapeutic window width (Kb, H1/Kb, 5HT2A) (H1 receptor) | corresponding MTD for a human (miniature pigs) | MTD [3, 4] | MTD ([3]; male, read-out: MTD (males)) | other results |
| --- | --- | --- | --- | --- | --- | --- | --- | --- |
| OCCOCCN1CCN(C2=Nc3ccccc3Sc3ccccc32)CC1 [quetiapine] | 3.7 times |  |  |  |  |  |  | Therapeutic window width (Kb, D2/Kb, D4) (D4.4 receptor): 0.11 |
| CN1CCN(C2=Nc3cc(Cl)c(F)cc3Nc3ccccc32)CC1 [Fluoroclozapine, 11-(4-methylpiperazine-1-yl)-7-fluoro-8-chloro-5H-dibenzo[b,e][1,4] diazepine] |  | 3.2 ± 0.4% | virtually no effect on M1 receptors | 0.63 | 450 mg per day | 6 mg/kg | 5 mg/kg | minimum effective dose designed for patient (mice; depending on patient's body weight): 20-35 mg per day; minimum effective dose designed for patient (mice; extrapolated from ALI experiment): 0.5 mg/kg; concentrations of fluoroclozapine and its metabolite desmethylfluoroclozapine in the brain [2]: comparable; metabolism [2]: metabolized to desmethylfluoroclozapine; concentrations for inhibition of H1 compared with inhibition of 5HT2A (times lower) (H1 receptor): approximately equal concentrations |
| Clc1ccc2c(c1)N=C(N1CCNCC1)c1ccccc1N2 [Desmethylclozapine, desmethylclozapine, reference compound] |  |  |  | 0.24 |  |  |  |  |
| Fc1cc2c(cc1Cl)N=C(N1CCNCC1)c1ccccc1N2 [Desmethylfluoroclozapine, 11-(piperazine-1-yl)-7-fluoro-8-chloro-5H-dibenzo[b,e][1,4]diazepine] |  | 4.2 ± 0.4% | is an agonist, and causes a significant response in the therapeutic drug concentration window |  |  |  |  | activating concentration, times higher than that of clozapine (muscarinic M4 receptor): 290 times; activating concentration, times higher than that of desmethylclozapine (muscarinic M4 receptor): 30 times; Kb (5HT2A receptor; binding constant determined from IC50, antagonism setup): 16 nM; Therapeutic window width (Kb, D2/Kb, 5HT2A) (5HT2A receptor; ratio of binding constants): 34; motion activity (CF-1 mice; CF-1 mice, oral 10 mg/kg): insignificant decrease in motion activity; Therapeutic window width (Kb, H1/Kb, 5HT2A) (H1 receptor; ratio of binding constants): 0.93 |
| CN1CCN(C2=Nc3cc(Cl)ccc3Nc3ccccc32)CC1 [Clozapine, clozapine, reference compound] | 8.8 times | 4.6 ± 0.7 % |  |  | 270 mg per day | 4.5 mg/kg | 3 mg/kg | number of circulating neutrophils in the blood versus control group (rats): significant increase; total distance travelled / sedation (CF-1 mice; mouse, in vivo): significantly reduced |
